Measured values: patent publication EP0068324A2, “Microcapsule preparation for reducing increased intracranial pressure and a process for preparing the same” (Tanabe Seiyaku Co., Ltd., priority 1981, dated 1983)

Experiment: in vivo
Conditions: mouse, po, mice, orally administered, measured one week after administration
Text: The microcapsule preparation containing a propanol derivative of the present invention can reduce the intracranial pressure in an extremely small amount, which may be by a different mechanism from the hyperosmolar dehydrating effect by the known intravenous injection of a large amount of hypertonic solution, and the therapeutic effect is large and durable without showing any side effect such as a rebound increase of the intracranial pressure. The propanol derivative (I) of the present invention is low toxic and highly safeful.

COc1cc(NC(C)=O)ccc1OCC(O)CN1CCN(c2cccc(F)c2)CC1 (stereo not shown) [1-(4-Acetamido-2-methoxyphenoxy)-3-[4-(3-fluorophenyl)piperazino]-2-propanol]
LD50 at 168 h: ~1500 mg/kg
